Results on 2 compounds are retold here after ChEMBL document CHEMBL3352542, “Synthesis, biological evaluation and molecular modeling study of 2-(1,3,4-thiadiazolyl-thio and 4-methyl-thiazolyl-thio)-quinazolin-4-ones as a new class of DHFR inhibitors” (Bioorg Med Chem Lett, 2014).

Each structure is given as a SMILES string. The source made the active and inactive calls. No cut-off for these calls is given here.

In general, IC50 refers to the concentration that inhibits the measured activity by half. A high value points to weaker potency.

For one experiment, the target named is T1, Dihydrofolate reductase (Bos taurus, UniProt P00376).
T1 sequence (P00376 whole entry): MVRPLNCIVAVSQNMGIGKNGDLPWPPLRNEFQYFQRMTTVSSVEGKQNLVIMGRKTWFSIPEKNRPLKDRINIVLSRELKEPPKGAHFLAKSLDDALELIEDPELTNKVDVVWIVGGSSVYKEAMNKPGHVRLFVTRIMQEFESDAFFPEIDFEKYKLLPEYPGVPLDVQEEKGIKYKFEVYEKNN
Description: Inhibition of bovine liver DHFR.

Experiment [1] relates to Staphylococcus aureus. Nature of the experiment: Antimicrobial activity against Staphylococcus aureus assessed as inhibition zone at 200 ug/disk after 24 hrs by disc-diffusion method. In kind it is functional. Particulars: read-out: IZ. In general terms: In agar diffusion tests the substance spreads into inoculated agar from a disc or well.
For experiment [2], the system named is Bacillus subtilis. Nature of the experiment: Antimicrobial activity against Bacillus subtilis assessed as inhibition zone at 200 ug/disk after 24 hrs by disc-diffusion method. Type of experiment: functional. The note with it: read-out: IZ.
The subject of experiment [3] is Escherichia coli. Nature of the experiment: Antimicrobial activity against Escherichia coli assessed as inhibition zone at 200 ug/disk after 24 hrs by disc-diffusion method. In kind it is functional. The note with it: read-out: IZ.
Experiment [4] has as its system Pseudomonas aeruginosa. Nature of the experiment: Antimicrobial activity against Pseudomonas aeruginosa assessed as inhibition zone at 200 ug/disk after 24 hrs by disc-diffusion method. In kind it is functional. The note with it: read-out: IZ.
In experiment [5] the test system is Candida albicans. Nature of the experiment: Antimicrobial activity against Candida albicans assessed as inhibition zone at 200 ug/disk after 24 hrs by disc-diffusion method. In kind it is functional. Particulars: read-out: IZ.
Experiment [6] deals with Staphylococcus aureus. Description: Antimicrobial activity against Staphylococcus aureus assessed as inhibition of visible growth after 24 hrs by disc-diffusion method. Type of experiment: functional, organism-based.
Experiment [7] concerns Bacillus subtilis. Description: Antimicrobial activity against Bacillus subtilis assessed as inhibition of visible growth after 24 hrs by disc-diffusion method. In kind it is functional, organism-based.
The next experiment relates to K562. Description: Growth inhibition of human K562 cells at 10 uM after 48 hrs. Type of experiment: functional. The note with it: K562, 48 h, read-out: GI.
A short description of experiment [8]: Growth inhibition of human MOLT4 cells at 10 uM after 48 hrs. Type of experiment: functional. Particulars: MOLT-4, 48 h, read-out: GI.
Experiment [9] is described as follows: Growth inhibition of human RPMI8226 cells at 10 uM after 48 hrs. In kind it is functional. Particulars: RPMI-8226, 48 h, read-out: GI.
The test system of a further experiment is SR. Description: Growth inhibition of human SR cells at 10 uM after 48 hrs. The note with it: read-out: GI. In kind it is functional.
The nature of experiment [10]: Growth inhibition of human HOP92 cells at 10 uM after 48 hrs. Type of experiment: functional. Particulars: HOP-92, 48 h, read-out: GI.
The test system of a further experiment is NCI-H226. Description: Growth inhibition of human NCI-H226 cells at 10 uM after 48 hrs. Type of experiment: functional. The note with it: NCI-H226, 48 h, read-out: GI.
For the next experiment, the system named is NCI-H23. Description: Growth inhibition of human NCI-H23 cells at 10 uM after 48 hrs. Type of experiment: functional. Particulars: NCI-H23, 48 h, read-out: GI.
For another experiment, the system named is NCI-H522. Description: Growth inhibition of human NCI-H522 cells at 10 uM after 48 hrs. Particulars: NCI-H522, 48 h, read-out: GI. In kind it is functional.
The test system of the next experiment is SF-268. Nature of the experiment: Growth inhibition of human SF268 cells at 10 uM after 48 hrs. Type of experiment: functional. Particulars: SF-268, 48 h, read-out: GI.
Experiment [11] is described as follows: Growth inhibition of human LOXIMVI cells at 10 uM after 48 hrs. In kind it is functional. Particulars: LOX IMVI, read-out: GI.
The subject of the next experiment is Malme-3M. Description: Growth inhibition of human MALME-3M cells at 10 uM after 48 hrs. In kind it is functional. Particulars: read-out: GI.
Experiment [12] can be described thus: Growth inhibition of human UACC62 cells at 10 uM after 48 hrs. Type of experiment: functional. The note with it: UACC-62, 48 h, read-out: GI.
Experiment [13] is described as follows: Growth inhibition of human OVCAR3 cells at 10 uM after 48 hrs. In kind it is functional. The note with it: OVCAR-3, 48 h, read-out: GI.
Experiment [14] is described as follows: Growth inhibition of human OVCAR4 cells at 10 uM after 48 hrs. In kind it is functional. The note with it: OVCAR-4, 48 h, read-out: GI.
Experiment [15] is described as follows: Growth inhibition of human UO31 cells at 10 uM after 48 hrs. In kind it is functional. The note with it: UO-31, 48 h, read-out: GI.
Experiment [16] can be described thus: Growth inhibition of human PC3 cells at 10 uM after 48 hrs. In kind it is functional. Particulars: PC-3, 48 h, read-out: GI.
Another experiment deals with T47D. Nature of the experiment: Growth inhibition of human T47D cells at 10 uM after 48 hrs. In kind it is functional. Particulars: read-out: GI.
Experiment [17] concerns Escherichia coli. Description: Antimicrobial activity against Escherichia coli assessed as inhibition of visible growth after 24 hrs by disc-diffusion method. In kind it is functional, organism-based.
In experiment [18] the test system is Pseudomonas aeruginosa. Description: Antimicrobial activity against Pseudomonas aeruginosa assessed as inhibition of visible growth after 24 hrs by disc-diffusion method. In kind it is functional, organism-based.
In experiment [19] the test system is Candida albicans. Description: Antimicrobial activity against Candida albicans assessed as inhibition of visible growth after 24 hrs by disc-diffusion method. Type of experiment: functional, organism-based.

Compound `Cc1nc(N)sc1Sc1nc2ccc(Cl)cc2c(=O)n1Cc1ccccc1` returned a half-inhibitory concentration (IC50) against Dihydrofolate reductase of 5 µM. Also, the zone of inhibition at 200 µg/disc in the experiment with Staphylococcus aureus [1] was found to be 18 mm; in the experiment on Bacillus subtilis [2], 19 mm; in the experiment with Escherichia coli [3], 12 mm; with Pseudomonas aeruginosa [4], 8 mm; with Candida albicans [5] it was 8 mm. In addition, the result in the experiment on Staphylococcus aureus [6] and in the experiment on Bacillus subtilis [7] was Active. The inhibition of growth at 10 µM in the experiment with K562 stood at 17.6%; in experiment [8], 16%; in experiment [9], 20.8%; with SR, 16.1%; in experiment [10], 16.8%; with NCI-H226 it was 10.4%. The inhibition of growth at 10 µM was 13.6% in the experiment on NCI-H23; 35.4% in the experiment on NCI-H522; 13.3% in the experiment with SF-268; 23.2% in [11]; 15.9% in the experiment on Malme-3M; 15.2% in experiment [12]. Also, the inhibition of growth at 10 µM was 14.9% in [13]; 20.9% in experiment [14]; 36.4% in experiment [15]; 15.8% in experiment [16]; 14.7% with T47D.
Consider `CC(=O)NS(=O)(=O)c1ccc(N)cc1` [SULFACETAMIDE], for which the zone of inhibition at 200 µg/disc in the experiment with Staphylococcus aureus [1] was 20 mm; with Bacillus subtilis [2] it was 22 mm; in the experiment with Escherichia coli [3] it was 18 mm; in the experiment with Pseudomonas aeruginosa [4] it was 28 mm; in the experiment with Candida albicans [5], 25 mm. Besides, the result in the experiment with Staphylococcus aureus [6], with Bacillus subtilis [7], in the experiment on Escherichia coli [17], in the experiment with Pseudomonas aeruginosa [18] and with Candida albicans [19] was Active.
